Data from the kinase profiling compilation of Christmann-Franck et al. (2016).

Legend:
Experiment in all cases: KINOMEscan competition binding
Conditions in all cases: compound 10.0 µM
[1] = molecular target: TIE1 (human) (UniProt P35590)
[2] = test system: FLT3 (human), P36888 [K663Q]
[3] = molecular target: STK11 (human) (UniProt Q15831)
[4] = test system: RET (human), P07949 [M918T]
[5] = molecular target: MAPK12 (human) (UniProt P53778)
[6] = molecular target: CASK (human) (UniProt O14936)
[7] = molecular target: CAMK2D (human) (UniProt Q13557)
[8] = molecular target: PLK1 (human) (UniProt P53350)
Chain of PLK1 (human) (P53350 whole entry, looked up): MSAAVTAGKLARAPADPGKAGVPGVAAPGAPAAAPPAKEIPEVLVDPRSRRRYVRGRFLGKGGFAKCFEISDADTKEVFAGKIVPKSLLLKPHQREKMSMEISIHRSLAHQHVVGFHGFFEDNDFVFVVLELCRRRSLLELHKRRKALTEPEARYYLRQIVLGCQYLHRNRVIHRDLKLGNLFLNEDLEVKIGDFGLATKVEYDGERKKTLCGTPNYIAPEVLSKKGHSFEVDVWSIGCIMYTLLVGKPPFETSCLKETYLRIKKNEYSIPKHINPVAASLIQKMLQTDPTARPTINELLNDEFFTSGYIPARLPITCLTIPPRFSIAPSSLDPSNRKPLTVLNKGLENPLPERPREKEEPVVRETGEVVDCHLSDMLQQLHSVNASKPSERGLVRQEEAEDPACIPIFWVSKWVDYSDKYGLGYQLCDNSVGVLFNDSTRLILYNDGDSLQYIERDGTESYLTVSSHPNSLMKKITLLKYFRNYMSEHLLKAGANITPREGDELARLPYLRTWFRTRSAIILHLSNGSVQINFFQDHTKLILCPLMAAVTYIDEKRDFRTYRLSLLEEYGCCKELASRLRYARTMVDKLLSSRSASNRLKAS

[9] = molecular target: IKBKE (human) (UniProt Q14164)
[10] = molecular target: DYRK2 (human) (UniProt Q92630)
[11] = molecular target: PAK3 (human) (UniProt O75914)
[12] = molecular target: EIF2AK1 (human) (UniProt Q9BQI3)
[13] = test system: LRRK2 (human), Q5S007 [G2019S]
[14] = molecular target: PTK2B (human) (UniProt Q14289)
[15] = test system: KIT (human), P10721 [A829P]
Chain of KIT (human), P10721 [A829P] (P10721 whole entry A829P, looked up): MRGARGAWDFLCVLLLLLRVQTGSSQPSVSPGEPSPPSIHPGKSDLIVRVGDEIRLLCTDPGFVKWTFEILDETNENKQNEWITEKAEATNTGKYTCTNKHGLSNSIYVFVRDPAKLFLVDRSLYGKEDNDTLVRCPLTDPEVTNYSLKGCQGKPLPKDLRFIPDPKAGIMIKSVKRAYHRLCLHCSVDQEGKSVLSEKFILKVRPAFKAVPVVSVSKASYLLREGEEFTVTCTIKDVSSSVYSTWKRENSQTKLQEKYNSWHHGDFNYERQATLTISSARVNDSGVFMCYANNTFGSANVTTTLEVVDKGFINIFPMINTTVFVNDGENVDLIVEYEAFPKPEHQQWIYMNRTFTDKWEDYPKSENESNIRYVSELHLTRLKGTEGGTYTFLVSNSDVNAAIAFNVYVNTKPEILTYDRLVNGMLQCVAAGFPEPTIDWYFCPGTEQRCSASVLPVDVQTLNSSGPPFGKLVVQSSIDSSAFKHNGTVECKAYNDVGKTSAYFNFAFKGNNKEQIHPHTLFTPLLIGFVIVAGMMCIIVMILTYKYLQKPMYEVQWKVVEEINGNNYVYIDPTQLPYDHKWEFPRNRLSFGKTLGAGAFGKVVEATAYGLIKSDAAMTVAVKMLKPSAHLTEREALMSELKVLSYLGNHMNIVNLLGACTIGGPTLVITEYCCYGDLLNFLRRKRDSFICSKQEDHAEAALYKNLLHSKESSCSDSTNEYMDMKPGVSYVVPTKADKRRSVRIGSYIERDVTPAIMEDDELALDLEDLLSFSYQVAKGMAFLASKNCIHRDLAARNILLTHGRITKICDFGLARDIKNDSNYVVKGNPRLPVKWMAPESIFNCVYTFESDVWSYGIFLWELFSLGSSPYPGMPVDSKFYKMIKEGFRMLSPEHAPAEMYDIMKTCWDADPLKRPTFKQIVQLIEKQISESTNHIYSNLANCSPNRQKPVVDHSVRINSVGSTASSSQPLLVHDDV

[16] = molecular target: MAP2K4 (human) (UniProt P45985)
[17] = molecular target: MAP2K6 (human) (UniProt P52564)
[18] = molecular target: TGFBR1 (human) (UniProt P36897)
[19] = molecular target: FGFR3 (human) (UniProt P22607)
[20] = molecular target: MARK4 (human) (UniProt Q96L34)
[21] = molecular target: MAP3K4 (human) (UniProt Q9Y6R4)
[22] = molecular target: YSK4 (human) (UniProt Q56UN5)
[23] = molecular target: TEC (human) (UniProt P42680)
[24] = molecular target: MAP2K5 (human) (UniProt Q13163)
[25] = test system: EGFR (human), P00533 [A750P; 747-749 del]
[26] = molecular target: MYO3B (human) (UniProt Q8WXR4)
[27] = molecular target: HCK (human) (UniProt P08631)
[28] = molecular target: PI4KB (human) (UniProt Q9UBF8)
[29] = molecular target: PRKX (human) (UniProt P51817)
Chain of PRKX (human) (P51817 whole entry, looked up): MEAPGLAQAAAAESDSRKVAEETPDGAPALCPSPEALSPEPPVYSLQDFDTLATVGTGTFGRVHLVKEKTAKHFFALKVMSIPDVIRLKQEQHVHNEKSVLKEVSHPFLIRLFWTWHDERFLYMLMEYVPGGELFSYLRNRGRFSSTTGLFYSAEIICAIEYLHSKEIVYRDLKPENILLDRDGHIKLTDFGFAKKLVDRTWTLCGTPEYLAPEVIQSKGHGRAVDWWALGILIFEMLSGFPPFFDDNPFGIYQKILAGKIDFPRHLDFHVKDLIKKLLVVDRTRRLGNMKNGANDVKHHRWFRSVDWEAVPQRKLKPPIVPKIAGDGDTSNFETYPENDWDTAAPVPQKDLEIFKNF

[30] = test system: KIT (human), P10721 [V559D/V654A]
Chain of KIT (human), P10721 [V559D/V654A] (P10721 whole entry V559D/V654A, looked up): as the sequence (P10721 whole entry A829P, looked up) above, with V559D, V654A, P829A counted along it

[31] = molecular target: TYRO3 (human) (UniProt Q06418)
[32] = molecular target: RPS6KA2 KD2 (human) (UniProt Q15349)
[33] = molecular target: MYO3A (human) (UniProt Q8NEV4)
[34] = molecular target: PLK4 (human) (UniProt O00444)
Chain of PLK4 (human) (O00444 whole entry, looked up): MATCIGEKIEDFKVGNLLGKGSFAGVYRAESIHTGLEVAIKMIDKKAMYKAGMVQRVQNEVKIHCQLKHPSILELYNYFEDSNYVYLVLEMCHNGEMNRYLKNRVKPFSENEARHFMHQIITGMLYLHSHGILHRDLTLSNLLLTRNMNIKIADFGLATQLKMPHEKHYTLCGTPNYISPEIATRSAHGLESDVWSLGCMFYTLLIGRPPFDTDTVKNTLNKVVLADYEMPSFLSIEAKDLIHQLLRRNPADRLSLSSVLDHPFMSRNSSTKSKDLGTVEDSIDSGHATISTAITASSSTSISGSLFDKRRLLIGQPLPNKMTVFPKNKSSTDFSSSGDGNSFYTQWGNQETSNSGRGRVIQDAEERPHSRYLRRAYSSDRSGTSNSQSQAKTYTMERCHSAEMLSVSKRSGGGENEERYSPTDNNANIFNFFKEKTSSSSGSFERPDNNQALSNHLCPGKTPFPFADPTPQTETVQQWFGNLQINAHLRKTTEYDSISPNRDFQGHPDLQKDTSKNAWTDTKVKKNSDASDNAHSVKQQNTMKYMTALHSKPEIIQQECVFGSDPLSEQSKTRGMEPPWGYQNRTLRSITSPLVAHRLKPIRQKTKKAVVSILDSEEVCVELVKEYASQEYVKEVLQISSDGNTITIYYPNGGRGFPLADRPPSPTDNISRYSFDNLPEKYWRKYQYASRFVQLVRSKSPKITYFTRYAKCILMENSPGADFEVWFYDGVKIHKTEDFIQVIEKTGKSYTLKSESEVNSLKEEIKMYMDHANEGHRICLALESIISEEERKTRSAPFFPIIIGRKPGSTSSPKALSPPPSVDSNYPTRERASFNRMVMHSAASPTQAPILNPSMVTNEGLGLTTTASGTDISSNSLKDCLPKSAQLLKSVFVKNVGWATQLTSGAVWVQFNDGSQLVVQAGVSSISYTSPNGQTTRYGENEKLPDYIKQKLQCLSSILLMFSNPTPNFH

[35] = molecular target: CDK11B (human) (UniProt P21127)
[36] = molecular target: CSNK2A1 (human) (UniProt P68400)
[37] = molecular target: NEK3 (human) (UniProt P51956)
[38] = molecular target: OXSR1 (human) (UniProt O95747)
Chain of OXSR1 (human) (O95747 whole entry, looked up): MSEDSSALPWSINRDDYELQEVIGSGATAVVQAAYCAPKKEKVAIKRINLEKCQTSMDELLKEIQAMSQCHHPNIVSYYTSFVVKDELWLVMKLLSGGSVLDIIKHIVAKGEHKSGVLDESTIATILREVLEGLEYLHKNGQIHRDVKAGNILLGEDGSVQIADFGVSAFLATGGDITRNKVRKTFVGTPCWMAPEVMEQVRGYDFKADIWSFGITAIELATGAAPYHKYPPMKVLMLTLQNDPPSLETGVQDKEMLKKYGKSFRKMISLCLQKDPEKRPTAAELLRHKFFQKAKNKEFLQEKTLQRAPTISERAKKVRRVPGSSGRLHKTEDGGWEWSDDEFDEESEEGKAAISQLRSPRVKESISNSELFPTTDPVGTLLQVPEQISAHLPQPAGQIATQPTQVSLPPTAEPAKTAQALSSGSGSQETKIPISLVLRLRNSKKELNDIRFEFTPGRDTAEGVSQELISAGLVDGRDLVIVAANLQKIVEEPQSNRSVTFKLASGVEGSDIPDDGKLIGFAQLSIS

[39] = test system: EGFR (human), P00533 [L861Q]
[40] = molecular target: HIPK2 (human) (UniProt Q9H2X6)
[41] = molecular target: EPHA7 (human) (UniProt Q15375)
[42] = molecular target: TYK2 JH2 pseudokinase (human) (UniProt P29597)
Chain of TYK2 JH2 pseudokinase (human) (P29597 whole entry, looked up): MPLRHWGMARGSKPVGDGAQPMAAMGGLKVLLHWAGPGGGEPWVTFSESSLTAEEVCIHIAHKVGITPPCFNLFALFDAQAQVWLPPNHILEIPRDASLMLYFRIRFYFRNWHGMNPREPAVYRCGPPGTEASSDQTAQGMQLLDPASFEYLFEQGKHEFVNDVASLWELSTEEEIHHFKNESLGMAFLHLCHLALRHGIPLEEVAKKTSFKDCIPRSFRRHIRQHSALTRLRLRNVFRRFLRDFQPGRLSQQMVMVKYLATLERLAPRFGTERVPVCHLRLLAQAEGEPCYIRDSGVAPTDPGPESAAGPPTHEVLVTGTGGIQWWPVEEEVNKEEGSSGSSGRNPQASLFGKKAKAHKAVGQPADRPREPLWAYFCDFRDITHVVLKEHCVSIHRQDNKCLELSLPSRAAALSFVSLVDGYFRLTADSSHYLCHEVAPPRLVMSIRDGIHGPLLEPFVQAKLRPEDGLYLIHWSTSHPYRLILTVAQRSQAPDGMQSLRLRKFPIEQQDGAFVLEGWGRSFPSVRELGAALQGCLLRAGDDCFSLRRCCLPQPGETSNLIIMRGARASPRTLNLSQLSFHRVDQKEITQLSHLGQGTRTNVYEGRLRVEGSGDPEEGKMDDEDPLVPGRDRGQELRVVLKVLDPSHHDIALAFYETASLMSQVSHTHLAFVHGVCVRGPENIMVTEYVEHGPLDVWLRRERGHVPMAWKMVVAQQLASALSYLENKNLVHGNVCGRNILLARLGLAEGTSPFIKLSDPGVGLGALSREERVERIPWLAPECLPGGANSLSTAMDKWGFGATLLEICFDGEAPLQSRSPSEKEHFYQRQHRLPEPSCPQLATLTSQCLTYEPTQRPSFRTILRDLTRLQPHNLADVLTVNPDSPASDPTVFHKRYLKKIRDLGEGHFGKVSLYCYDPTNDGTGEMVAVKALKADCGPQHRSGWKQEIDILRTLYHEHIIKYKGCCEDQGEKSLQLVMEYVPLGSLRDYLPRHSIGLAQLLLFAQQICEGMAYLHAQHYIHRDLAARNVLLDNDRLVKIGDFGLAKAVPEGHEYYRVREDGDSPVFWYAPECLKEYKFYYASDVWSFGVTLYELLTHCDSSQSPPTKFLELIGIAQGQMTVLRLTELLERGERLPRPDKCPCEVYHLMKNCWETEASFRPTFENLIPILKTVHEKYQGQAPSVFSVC

Chain of MAPK12 (human) (P53778 whole entry, looked up): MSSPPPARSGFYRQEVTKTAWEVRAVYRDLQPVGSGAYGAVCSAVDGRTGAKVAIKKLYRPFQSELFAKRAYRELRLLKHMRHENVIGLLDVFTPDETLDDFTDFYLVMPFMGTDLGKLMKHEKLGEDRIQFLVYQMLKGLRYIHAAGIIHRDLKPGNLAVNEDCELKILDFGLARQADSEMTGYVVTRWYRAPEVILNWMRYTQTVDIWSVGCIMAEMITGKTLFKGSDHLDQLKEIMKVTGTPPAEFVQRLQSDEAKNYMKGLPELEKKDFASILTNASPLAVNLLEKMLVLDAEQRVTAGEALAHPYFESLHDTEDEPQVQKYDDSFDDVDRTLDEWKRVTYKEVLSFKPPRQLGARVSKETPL

## Cc1cc([C@@H](C)Nc2ccccc2C(=O)O)c2nc(N3CCOCC3)cc(=O)n2c1
[1]
  kinase still bound, per cent of control: 100%
[2]
  kinase still bound, per cent of control: 15%
[3]
  kinase still bound, per cent of control: 97%
[4]
  kinase still bound, per cent of control: 100%
[5]
  kinase still bound, per cent of control: 82%
[6]
  kinase still bound, per cent of control: 100%
[7]
  kinase still bound, per cent of control: 100%
[8]
  kinase still bound, per cent of control: 55%
[9]
  kinase still bound, per cent of control: 100%
[10]
  kinase still bound, per cent of control: 72%
[11]
  kinase still bound, per cent of control: 12%
[12]
  kinase still bound, per cent of control: 100%
[13]
  kinase still bound, per cent of control: 90%
[14]
  kinase still bound, per cent of control: 90%
[15]
  kinase still bound, per cent of control: 87%
[16]
  kinase still bound, per cent of control: 70%
[17]
  kinase still bound, per cent of control: 91%
[18]
  kinase still bound, per cent of control: 100%
[19]
  kinase still bound, per cent of control: 100%
[20]
  kinase still bound, per cent of control: 100%
[21]
  kinase still bound, per cent of control: 100%
[22]
  kinase still bound, per cent of control: 100%
[23]
  kinase still bound, per cent of control: 91%
[24]
  kinase still bound, per cent of control: 100%
[25]
  kinase still bound, per cent of control: 100%
[26]
  kinase still bound, per cent of control: 51%
[27]
  kinase still bound, per cent of control: 60%
[28]
  kinase still bound, per cent of control: 89%
[29]
  kinase still bound, per cent of control: 100%
[30]
  kinase still bound, per cent of control: 100%
[31]
  kinase still bound, per cent of control: 100%
[32]
  kinase still bound, per cent of control: 100%
[33]
  kinase still bound, per cent of control: 100%
[34]
  kinase still bound, per cent of control: 100%
[35]
  kinase still bound, per cent of control: 100%
[36]
  kinase still bound, per cent of control: 66%
[37]
  kinase still bound, per cent of control: 65%
[38]
  kinase still bound, per cent of control: 80%
[39]
  kinase still bound, per cent of control: 76%
[40]
  kinase still bound, per cent of control: 77%
[41]
  kinase still bound, per cent of control: 87%
[42]
  kinase still bound, per cent of control: 95%
